From patent US12595269B2, “Morpholine-like monoamine releasers” (Solvonis Therapeutics Ireland Holdings Limited, priority 2022, dated 2026)

Columns and labels:
DAT (dopamine release) = target: T1, DAT (dopamine release) (Rattus norvegicus, UniProt P23977); assay: Dopamine release filtration assay in rat striatal synaptosomes; assay type: cell-based; details: % of release by 50 μM MDMA, read-out: DAT release pEC50 (converted)
T1 construct: added to the tube containing the crude striatal synaptosomes preparation; from tissue; host or cells: rat striatum, crude synaptosomes
T1 sequence (P23977 whole entry): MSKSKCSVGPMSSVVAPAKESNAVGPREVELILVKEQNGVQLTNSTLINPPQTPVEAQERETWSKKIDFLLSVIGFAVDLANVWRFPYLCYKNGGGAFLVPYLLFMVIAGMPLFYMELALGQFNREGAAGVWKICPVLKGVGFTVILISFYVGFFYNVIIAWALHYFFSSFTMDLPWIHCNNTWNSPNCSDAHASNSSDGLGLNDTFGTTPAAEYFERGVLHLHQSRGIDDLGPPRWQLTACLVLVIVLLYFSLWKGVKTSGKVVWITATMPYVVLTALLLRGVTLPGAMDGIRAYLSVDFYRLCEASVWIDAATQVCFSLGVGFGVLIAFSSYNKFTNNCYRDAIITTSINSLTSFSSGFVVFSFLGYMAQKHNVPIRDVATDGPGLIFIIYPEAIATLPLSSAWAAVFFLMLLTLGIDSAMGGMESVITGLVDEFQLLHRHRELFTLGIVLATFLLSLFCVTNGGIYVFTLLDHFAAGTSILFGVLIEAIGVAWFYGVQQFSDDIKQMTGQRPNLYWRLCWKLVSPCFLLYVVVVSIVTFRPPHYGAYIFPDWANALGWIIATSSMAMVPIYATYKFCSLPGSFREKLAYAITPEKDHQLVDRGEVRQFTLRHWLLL
Protocol: Methods and Procedure—Release: The potency of the disclosed compounds for stimulating dopamine (DA) release was measured by an endpoint release filtration assay in a 96-well format using rat synaptosomes, essentially as described by Sandtner et al., Mol. Pharmacol., 2016; 89(1):165-75, and Baumann et al., Neuropsychopharmacol., 2013; 38:552-562, with some variations.
One male rat was sacrificed and striatum/cortex regions were dissected over ice. The striatum portions were weighed and put in a glass tube for homogenization, containing ice-cold 0.32 M sucrose (dilution 1:24 w/v), while the frontal cortex tissue was diluted in ice-cold 0.32 M sucrose, 1:20 w/v. Tissues were homogenized and centrifuged for 10 mins at 1000×g. The two supernatants from striatum and cortex (crude synaptosomes) were retained on ice until use.
Test compounds were then serially diluted 1:4 in neat DMSO as concentration-response curves (CRC) of 11 points. […]
^3H-Dopamine was added to the tube containing the crude striatal synaptosomes preparation, diluted 1:20 (v/v) in complete Krebs-phosphate buffer, and was incubated at RT and gently mixed for 60 minutes. […] The retained radioactivity was counted in a scintillation counter after the addition of 50 μL/well Microscint-20.
The raw data (cpm) from residual radioactivity onto the filter were elaborated for the determination of pEC50/EC50 values. Specifically, the compound effect was expressed as the percent of maximal release obtained with 50 μM MDMA (100% release) in comparison to vehicle (0.5% DMSO, 0% release). […] In each plate, for both 0% and 100% of release, the signal window is monitored performing Z′ calculations using raw data of four replicates.

[1] = In vitro intrinsic clearance in rat liver microsomes; assay type: in vitro ADME; details: pH 7.4, read-out: Intrinsic clearance (μL/min/mg protein) rat
Protocol: Methods and Procedure: The general procedure involves incubating test compounds with liver microsomes and subsequently detecting the compounds to determine intrinsic clearance. Clearance was estimated from the rate of depletion k (min−1), the volume of the incubation V (mL), and the amount of microsomal proteins in the incubation M (mg). Intrinsic clearance is defined by the following equation: Clint k*V/M.
Values for CLint are expressed as μL/min/mg protein. Verapamil and dextromethorphan were used as positive controls for CYP3A4 and CYP2D6 isoforms, respectively, to confirm metabolic activity.
Positive control and compounds for testing were dissolved in an appropriate solvent to obtain a 10 mM stock solution, which was diluted to achieve a final working solution, as detailed in the above table. Stock solutions were usually prepared at 10 mM DMSO, whereas working solutions were made by adding 5 μL 10 mM DMSO+995 μL MeOH. However, this concentration can be varied, e.g., when the test item is not soluble in the selected solvent.
Prior to experimentation, frozen liver microsomes were thawed in a water bath at 37° C. and kept on ice until use. The microsomes were then diluted with 50 mM potassium phosphate buffer pH 7.4 to a protein concentration of 0.56 mg/mL. To prepare test and control items in final incubation conditions, 5 μL of test compound and positive control working solutions were added to 445 μL of microsomes incubation mixture at 0.56 mg/mL and 50 μL of regenerating system.
As it relates to the automated incubation procedure for microsomes incubation, the following procedure was followed: • 1. 150 μL of quenching solution (ACN containing an appropriate Internal Standard, i.e. Rolipram and Diclofenac for positive and negative ion mode, respectively) was manually dispensed or dispensed by using the Hamilton system in each well of 96 deep well 1 mL plates. • 2. 800-1000 μL-aliquots of NADPH regenerating system were pre-warmed at 37° C. for 5 minutes. • 3. 5 μL of 50 μM test items and control were added to 445 μL of the 0.56 mg/mL microsomes solution, and the incubation mixture was pre-warmed in a 96 deep well 2 mL plate (incubation plate) at 37° C. for 5 minutes. • 4. […] Metabolic stability was calculated from the ratio of peak area of the remaining test or control item with internal standard versus time. • 9. […] The integrated peak areas of the test and control items at the selected time points were divided by the respective peak areas of the IS, and the percent of parent remaining was calculated by normalizing the peak area ratio of parent to IS at 0 min. Observed rate constant (kobs) for parent degradation was calculated by determining the slope of the line of the graph of the natural log of percentage parent remaining versus time of incubation. […]

Row | Compound | EC50 (DAT (dopamine release)) [nM] | microsomal CLint at 0.5 µM [1] [µL/min/mg]
1 | Clc1ccc([C@]23CN[C@H](CO2)C3)cc1Cl (single isomer, unassigned) [516A] | 1100 | 167
2 | Clc1ccc([C@@]23CN[C@@H](CO2)C3)cc1Cl (single isomer, unassigned) [518A] | 33.1 | 268
3 | Clc1ccc(C23CNC(CO2)C3)cc1Cl (stereo not shown) [522A, 1-(3,4-dichlorophenyl)-2-oxa-5-azabicyclo[2.2.1]heptane] | 61.7 | 83
4 | CNC(C)Cc1ccc2c(c1)OCO2 (stereo not shown) [MDMA, reference compound] | – | 171
